Drawing on patent publication US20180362543A1, “HIV REPLICATION INHIBITOR” (Shionogi & Co., Ltd., priority 2013, published 2018), this text covers EC50 for 41 molecules.

In general, EC50 refers to the concentration that produces a half-maximal response. Read a high EC50 as weaker potency.

The subject of the first assay is HIV (HTLV-III B strain). Briefly: HIV replication inhibition assay (MTT, MT-4 cells). In kind it is cell-based. The following applies: Human immunodeficiency virus 1, MT4, 96 h, 4 days culture, concentration at which cell cytotoxicity by virus is inhibited 50%. The procedure:
HIV (HTLV-III B strain) persistent infected human T cell strain Molt-4 clone 8 was cultured in 10% Fetal Bovine Serum-containing RPMI-1640 medium and the supernatant was filtrated, then the virus titer was measured and the solution was stored at −80° C. Each anti-human immunodeficiency virus active substance was diluted with the above cultured medium to the designated concentration, which was dispensed into 96 well micro plate by 50 μL. Next, a MT-4 cell suspended liquid was dispensed by 100 μL (2.5×10^4 cells), then the above HIV-containing supernatant diluted with the above cultured medium was added thereto by 50 μL (60 pfu (plaque forming unit)).
The obtained mixture was cultured at 37° C. in CO2 incubator for four days, then 3-(4,5-dimehylthiazole-2-yl)-2,5-diphenyltetrazolynium bromide (MTT) 5 mg/mL in PBS was added to each well by 30 μL, followed by 1 hr-cultivation. In this step, as formazan was precipitated by reduction of MTT in living cells, the cell supernatant was removed from all well by 150 μL, then a 150 μL of solution (10% Triton X-100 and […]) was added thereto, followed by shaking with a plate mixer, to elute formazan. The formazan was measured with a microreader at OD: 560 nm and 690 nm (wavelength) and the result was compared with the reference. EC50 means the compound concentration at which cell cytotoxicity by virus is inhibited 50%.
On to `Cc1ccc(-c2c(C)c3c(c(C)c2[C@H](OC(C)(C)C)C(=O)O)NC(=O)CCc2ccccc2-3)cc1` [Compound 42], for which the EC50 turned out to be 10 nM.

Molecule `Cc1ccc(-c2c(C)c3c(c(C)c2[C@H](OC(C)(C)C)C(=O)O)N(S(C)(=O)=O)Cc2c(F)ccc(F)c2-3)c(F)c1` [Compound 304] returned an EC50 of 5.2 nM.

`Cc1ccc(-c2c(C)c3c(c(C)c2[C@H](OC(C)(C)C)C(=O)O)NC(=O)N(C2CCCCC2)CC3)cc1` [Compound 71] showed an EC50 of 16 nM.

`Cc1ccc(-c2c(C)c3c(c(C)c2[C@H](OC(C)(C)C)C(=O)O)N(S(C)(=O)=O)Cc2ccccc2-3)cc1` [Compound 20]: the EC50 came to 13 nM.

`COc1cc2c(cn1)-c1c(C)c(-c3ccc4c(c3C)NCCO4)c([C@H](OC(C)(C)C)C(=O)O)c(C)c1N(S(C)(=O)=O)C2` [Compound 322] had an EC50 of 11 nM.

In turn, `Cc1c(-c2ccc3cccnc3c2C)c([C@H](OC(C)(C)C)C(=O)O)c(C)c2c1-c1c(F)ccc(F)c1CN2S(C)(=O)=O` [Compound 311] displayed an EC50 of 28 nM.

The same assay, now with this note: Human immunodeficiency virus 1, MT4, 96 h, Table A-2, four days.
In turn, `Cc1ccc(-c2c(C)c3c(c(C)c2[C@H](OC(C)(C)C)C(=O)O)N(S(C)(=O)=O)Cc2ccc(C)cc2-3)cc1` [Compound 110] registered an EC50 of 17 nM.

As for `Cc1ccc(-c2c(C)c3c(c(C)c2[C@H](OC(C)(C)C)C(=O)O)NS(=O)(=O)N(Cc2ccc(F)cc2)CC3)cc1` [Compound 133], a half-maximal response (EC50) required 4.8 nM.

In turn, `Cc1ccc(-c2c(C)c3c(c(C)c2[C@H](OC(C)(C)C)C(=O)O)NS(=O)(=O)N(C2CCCCC2)CC3)cc1` [Compound 127] registered an EC50 of 11 nM.

The molecule `COCCN1CCc2c(C)c(-c3ccc(C)cc3)c([C@H](OC(C)(C)C)C(=O)O)c(C)c2NS1(=O)=O` [Compound 132] had an EC50 of 22 nM.

The molecule `Cc1ccc(-c2c([C@H](OC(C)(C)C)C(=O)O)c(C)c3nc(O)c4cc(C)ccc4c3c2C)cc1` [Compound 96] gave an EC50 of 32 nM.

`Cc1ccc(-c2c([C@H](OC(C)(C)C)C(=O)O)c(C)c3nc(O)c4cc(F)cnc4c3c2C)cc1` [Compound 100] returned an EC50 of 10 nM.

Molecule `Cc1ccc(-c2c(C)c3c(c(C)c2[C@H](OC(C)(C)C)C(=O)O)NS(=O)(=O)Cc2cccc(C)c2-3)cc1` [Compound 125] yielded an EC50 of 39 nM.

With `Cc1ccc(-c2c(C)c3c(c(C)c2[C@H](OC(C)(C)C)C(=O)O)NS(=O)(=O)Cc2cc(F)ccc2-3)cc1` [Compound 91], the EC50 turned out to be 4.2 nM.

The assay is the same for the next values; noted with them: Human immunodeficiency virus 1, MT4, 96 h, Table A-3, four days.
As to `Cc1ccc(-c2c(C)c3c(c(C)c2[C@H](OC(C)(C)C)C(=O)O)N(S(=O)(=O)C2CC2)Cc2ccccc2-3)cc1` [Compound 155], a half-maximal response (EC50) required 39 nM.

As to `Cc1ccc(-c2c(C)c3c(c(C)c2[C@H](OC(C)(C)C)C(=O)O)N(S(C)(=O)=O)Cc2c(F)cccc2-3)cc1` [Compound 163], the EC50 was 15 nM.

On to `Cc1ccc(-c2c(C)c3c(c(C)c2[C@H](OC(C)(C)C)C(=O)O)N(S(C)(=O)=O)Cc2cc(OC(F)(F)F)ccc2-3)cc1` [Compound 164], for which a half-maximal response (EC50) required 4.1 nM.

As for `Cc1ccc(-c2c(C)c3c(c(C)c2[C@H](OC(C)(C)C)C(=O)O)N(S(C)(=O)=O)Cc2cscc2-3)cc1` [Compound 183], it took 21 nM to reach a half-maximal effect (EC50).

As for `Cc1ccc(-c2c(C)c3c(c(C)c2[C@H](OC(C)(C)C)C(=O)O)NC(=O)N(Cc2ccc(F)cc2)CC3)cc1` [Compound 177], the midpoint of the response, the EC50, lay at 34 nM.

Turning to `Cc1ccc(-c2c(C)c3c(c(C)c2[C@H](OC(C)(C)C)C(=O)O)NC(=O)C2(CCC(F)(F)CC2)N3)cc1` [Compound 157], the concentration giving a half-maximal response (EC50) came to 4.3 nM.

For `Cc1ccc(-c2c(C)c3c(c(C)c2[C@H](OC(C)(C)C)C(=O)O)N(S(C)(=O)=O)Cc2c-3ccc(C)c2F)cc1` [Compound 141], the EC50 stood at 3.5 nM.

The same assay, now with this note: Human immunodeficiency virus 1, MT4, 96 h, Table A-4, four days.
For `Cc1ccc(-c2c(C)c3c(c(C)c2[C@H](OC(C)(C)C)C(=O)O)N(S(C)(=O)=O)Cc2c(F)cc(F)cc2-3)cc1` [Compound 228], the EC50 worked out at 19 nM.

`Cc1ccc(-c2c([C@H](OC(C)(C)C)C(=O)O)c(C)c3nc(O)c4c(c3c2C)CCCN4)cc1` [Compound 221] showed an EC50 of 90 nM.

Consider `Cc1c([C@H](OC(C)(C)C)C(=O)O)c(-c2ccc(Cl)cc2)c(C)c2c1nc(O)c1cc(F)cnc12` [Compound 238], for which it took 31 nM to reach a half-maximal effect (EC50).

Staying with this assay, now noted: Human immunodeficiency virus 1, MT4, 96 h, Table A-5, four days.
For `Cc1c(-c2ccc3c(c2)NCCO3)c([C@H](OC(C)(C)C)C(=O)O)c(C)c2c1-c1c(F)cccc1CN2S(C)(=O)=O` [Compound 260], the EC50 was 14 nM.

The molecule `Cc1c(-c2ccc3c(c2)C(F)(F)CCO3)c([C@H](OC(C)(C)C)C(=O)O)c(C)c2c1-c1c(F)cccc1CN2S(C)(=O)=O` [Compound 259] returned an EC50 of 27 nM.

As for `CC(=O)N1Cc2ccccc2-c2c(C)c(-c3ccc(C)cc3)c([C@H](OC(C)(C)C)C(=O)O)c(C)c21` [Compound 290], the response was half-maximal at 53 nM (EC50).

As to `Cc1ccc2c(c1F)CN(S(C)(=O)=O)c1c(C)c([C@H](OC(C)(C)C)C(=O)O)c(-c3ccc4c(c3C)NCCO4)c(C)c1-2` [Compound 254], the EC50 was 3.1 nM.

Molecule `COc1ccc2c(c1F)CN(S(C)(=O)=O)c1c(C)c([C@H](OC(C)(C)C)C(=O)O)c(-c3ccc4c(c3C)NCCO4)c(C)c1-2` [Compound 293] came in with an EC50 of 3.3 nM.

With `Cc1ccc(-c2c(C)c3c(c(C)c2[C@H](OC(C)(C)C)C(=O)O)N(S(C)(=O)=O)Cc2cc(C#N)ccc2-3)cc1` [Compound 279], the EC50 was determined as 11 nM.

In the case of `Cc1ccc(-c2c(C)c3c(c(C)c2[C@H](OC(C)(C)C)C(=O)O)N(S(C)(=O)=O)Cc2cccc(F)c2-3)c(C)c1` [Compound 278], the EC50 was 3.7 nM.

Still in this assay, the particulars now being: Human immunodeficiency virus 1, MT4, 96 h, Table A-7, four days.
`Cc1ccc(-c2c(C)c3c(c(C)c2[C@H](OC(C)(C)C)C(=O)O)N(C(N)=O)Cc2c(F)ccc(F)c2-3)cc1` [Compound 335] registered an EC50 of 30 nM.

Turning to `Cc1cc(C)c(-c2c(C)c3c(c(C)c2[C@H](OC(C)(C)C)C(=O)O)N(S(C)(=O)=O)Cc2cccc(F)c2-3)s1` [Compound 343], a half-maximal response (EC50) required 16 nM.

As for `Cc1c(-c2c(C)c3c(c(C)c2[C@H](OC(C)(C)C)C(=O)O)N(C(N)=O)Cc2c(F)ccc(F)c2-3)ccc2c1NCCO2` [Compound 358], it took 91 nM to reach a half-maximal effect (EC50).

With `COc1ccc(-c2c(C)c3c(c(C)c2[C@H](OC(C)(C)C)C(=O)O)N(S(C)(=O)=O)Cc2c(F)ccc(F)c2-3)c(C)n1` [Compound 329], the response was half-maximal at 39 nM (EC50).

The same assay, now with this note: Human immunodeficiency virus 1, MT4, 96 h, Table A-8 (continuation of Tables A-1 to A-9), four days.
Take `Cc1ccc(-c2c(C)c3c(c(C)c2[C@H](OC(C)(C)C)C(=O)O)N(S(C)(=O)=O)Cc2cnc(C(F)(F)F)cc2-3)cc1` [Compound 385]: it took 39 nM to reach a half-maximal effect (EC50).

With `Cc1ccc(-c2c(C)c3c(c(C)c2[C@H](OC(C)(C)C)C(=O)O)N(S(C)(=O)=O)Cc2cc(C)cnc2-3)c(C)c1` [Compound 384], the midpoint of the response, the EC50, lay at 8.4 nM.

`Cc1c(-c2c(C)c3c(c(C)c2[C@H](OC(C)(C)C)C(=O)O)N(S(C)(=O)=O)Cc2cccc(F)c2-3)ccc(Cl)c1O` [Compound 372] registered a concentration for a half-maximal effect (EC50) of 81 nM.

The same assay, now with this note: Table A-2, four days.
`Cc1ccc(-c2c(C)c3c(c(C)c2[C@H](OC(C)(C)C)C(=O)O)NS(=O)(=O)Cc2c(F)cccc2-3)cc1` [Compound 124] had an EC50 of 8.2 nM.

`Cc1ccc(-c2c(C)c3c(c(C)c2[C@H](OC(C)(C)C)C(=O)O)NS(=O)(=O)Cc2ccc(C)cc2-3)cc1` [Compound 119] displayed an EC50 of 43 nM.

With `Cc1ccc(-c2c(C)c3c(c(C)c2[C@H](OC(C)(C)C)C(=O)O)NS(=O)(=O)Cc2c(F)cccc2-3)cc1` [Compound 123], the midpoint of the response, the EC50, lay at 89 nM.
